The experiment deals with CDK8 (Homo sapiens, UniProt P49336). Briefly: CDK8 degradation in HEK-293 cells (Western blot, normalized by GAPDH). Also noted: endogenous in cells; host or cells: HEK-293. As to conditions: HEK-293 cells; for % CDK8 remaining: 24 hours. It is filed as cell-based. Here is the method: Table 1 presents the structures of 35 different chimeras that have been synthesized, together with their effects (at 1 μM or 0.3 μM concentrations) on CDK8 degradation in HEK-293 cells. The synthesis schemes of all the compounds are described below. CDK8 degradation was measured by Western blot analysis of RIPA lysates of HEK-293cells treated with or without the test compound for 24 hours, using antibodies against CDK8 (Santa Cruz sc-1521) and housekeeping protein GAPDH (Santa Cruz sc-32233) (loading control) Protein bands on immunoblotted PVDF membranes were visualized with Western Lighting Plus ECL detection reagent (Perkin Elmer, Waltham, MA, USA) using ChemiDoc Touch™ (Bio-Rad). Image processing and densitometry analysis were performed using ImageLab software (Bio-Rad) to quantify the CDK8 protein levels (normalized by GAPDH) and evaluate the effects of compound treatment.
FIGS. 2F and 2G show the effects of different concentrations of potent Senexin C- and BI-1347-based PROTACs on CDK8 and CDK19 degradation in HEK-293cells. Based on these assays, we calculated DC50 values that correspond to PROTAC concentrations inducing degradation of CDK8 and CDK19 to the half of protein level in untreated cells. The corresponding CDK8 DC50 values were 46 nM for IA7843, 6.6 nM for IA7882 and 2.8 nM for IA7886, and CDK19 DC50 values were 1 μM for IA7843, 25 nM for IA7882 and 10 nM for IA7886.
In general terms: Immunoblotting shows a protein as a band on a membrane.

Marks after values point to notes of the source that are not given here.

CDK8, sequence (P49336 whole entry): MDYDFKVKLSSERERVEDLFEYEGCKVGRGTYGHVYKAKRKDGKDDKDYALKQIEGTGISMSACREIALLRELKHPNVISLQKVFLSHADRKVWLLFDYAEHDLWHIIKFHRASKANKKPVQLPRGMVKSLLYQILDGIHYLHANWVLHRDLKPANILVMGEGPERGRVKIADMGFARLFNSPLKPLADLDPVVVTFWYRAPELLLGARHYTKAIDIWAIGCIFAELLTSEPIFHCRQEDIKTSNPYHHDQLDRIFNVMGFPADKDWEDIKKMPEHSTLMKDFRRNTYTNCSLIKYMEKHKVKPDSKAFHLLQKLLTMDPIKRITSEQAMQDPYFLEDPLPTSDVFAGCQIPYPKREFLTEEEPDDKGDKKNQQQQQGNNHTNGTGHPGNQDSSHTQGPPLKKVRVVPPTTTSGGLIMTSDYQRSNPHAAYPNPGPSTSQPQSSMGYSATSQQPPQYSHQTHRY
CDK8, sequence (P24863 whole entry partner): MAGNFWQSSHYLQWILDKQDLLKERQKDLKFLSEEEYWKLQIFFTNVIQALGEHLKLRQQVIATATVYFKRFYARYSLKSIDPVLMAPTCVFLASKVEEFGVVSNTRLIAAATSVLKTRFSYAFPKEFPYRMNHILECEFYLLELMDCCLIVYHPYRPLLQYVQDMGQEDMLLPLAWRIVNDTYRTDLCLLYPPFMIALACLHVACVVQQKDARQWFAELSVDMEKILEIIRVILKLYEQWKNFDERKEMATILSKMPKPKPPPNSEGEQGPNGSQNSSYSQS

As to `N#Cc1ccc2nccc(NCCc3ccc4cc(C(=O)N5CCN(C(=O)CCOCCOCCNc6cccc7c6C(=O)N(C6CCC(=O)NC6=O)C7=O)CC5)ccc4c3)c2c1` (stereo not shown) [HV5958, 4-[2-[6-[4-[3-[2-[2-[[2-(2,6-dioxo-3-piperidyl)-1,3-dioxo-isoindolin-4-yl]amino]ethoxy]ethoxy]propanoyl]piperazine-1-carbonyl]-2-naphthyl]ethylamino]quinoline-6-carbonitrile], the “% CDK8 remaining” value (tested at 1 μM) is 27%.

For the compound `N#Cc1ccc2nccc(NCCc3ccc4cc(C(=O)N5CCN(C(=O)CCCCCCCCCNC(=O)CCCCCNc6cccc7c6C(=O)N(C6CCC(=O)NC6=O)C7=O)CC5)ccc4c3)c2c1` (stereo not shown) [IA7859, N-[10-[4-[6-[2-[(6-cyano-4-quinolyl)amino]ethyl]naphthalene-2-carbonyl]piperazin-1-yl]-10-oxo-decyl]-6-[[2-(2,6-dioxo-3-piperidyl)-1,3-dioxo-isoindolin-4-yl]amino]hexanamide], the “% CDK8 remaining” value (tested at 1 μM) was found to be 81%.

Turning to `N#Cc1ccc2nccc(NCCc3ccc4cc(C(=O)N5CCN(C(=O)CCCCCCCCCCNC(=O)CCCNc6cccc7c6CN(C6CCC(=O)NC6=O)C7=O)CC5)ccc4c3)c2c1` (stereo not shown) [IA7869, N-[11-[4-[6-[2-[(6-cyano-4-quinolyl)amino]ethyl]naphthalene-2-carbonyl]piperazin-1-yl]-11-oxo-undecyl]-4-[[2-(2,6-dioxo-3-piperidyl)-1-oxo-isoindolin-4-yl]amino]butanamide], the “% CDK8 remaining” value (tested at 1 μM) amounted to 43%.

As to `O=C1CCC(N2C(=O)c3cccc(NCCCCC(=O)N4CCN(C(=O)Cn5cc(-c6ccc(-c7cncc8ccccc78)cc6)cn5)CC4)c3C2=O)C(=O)N1` (stereo not shown) [IA7895, 2-(2,6-dioxopiperidin-3-yl)-4-((5-(4-(2-(4-(4-(isoquinolin-4-yl)phenyl)-1H-pyrazol-1-yl)acetyl)piperazin-1-yl)-5-oxopentyl)amino) isoindoline-1,3-dione], the “% CDK8 remaining” value (tested at 0.3 μM (marked *)) amounted to 70%*.

`N#Cc1ccc2nccc(NCCc3ccc4cc(C(=O)N5CCN(C(=O)CCNC(=O)CCOCCOCCOCCOCCNc6cccc7c6C(=O)N(C6CCC(=O)NC6=O)C7=O)CC5)ccc4c3)c2c1` (stereo not shown) [IA7822, N-[3-[4-[6-[2-[(6-cyano-4-quinolyl)amino]ethyl]naphthalene-2-carbonyl]piperazin-1-yl]-3-oxo-propyl]-3-[2-[2-[2-[2-[[2-(2,6-dioxo-3-piperidyl)-1,3-dioxo-isoindolin-4-yl]amino]ethoxy]ethoxy]ethoxy]ethoxy]propanamide]: the “% CDK8 remaining” value (tested at 1 μM) came to 65%.

Regarding `N#Cc1ccc2nccc(NCCc3ccc4cc(C(=O)N5CCN(C(=O)CCCCCCCCNC(=O)CCCCCNc6cccc7c6C(=O)N(C6CCC(=O)NC6=O)C7=O)CC5)ccc4c3)c2c1` (stereo not shown) [IA7860, N-[9-[4-[6-[2-[(6-cyano-4-quinolyl)amino]ethyl]naphthalene-2-carbonyl]piperazin-1-yl]-9-oxo-nonyl]-6-[[2-(2,6-dioxo-3-piperidyl)-1,3-dioxo-isoindolin-4-yl]amino]hexanamide], where the note is “tested at 1 μM”, the “% CDK8 remaining” value is listed as 95%.

Consider `N#Cc1ccc2nccc(NCCc3ccc4cc(C(=O)N5CCN(C(=O)CCOCCOCCOCCNC(=O)CCNc6cccc7c6C(=O)N(C6CCC(=O)NC6=O)C7=O)CC5)ccc4c3)c2c1` (stereo not shown) [IA7830, N-[2-[2-[2-[3-[4-[6-[2-[(6-cyano-4-quinolyl)amino]ethyl]naphthalene-2-carbonyl]piperazin-1-yl]-3-oxo-propoxy]ethoxy]ethoxy]ethyl]-3-[[2-(2,6-dioxo-3-piperidyl)-1,3-dioxo-isoindolin-4-yl]amino]propanamide], for which the “% CDK8 remaining” value (tested at 1 μM) stood at 65%.

As for `CN(CCCNC(=O)CCOCCOCCOCCOCCOCCOCCNc1cccc2c1C(=O)N(C1CCC(=O)NC1=O)C2=O)C(=O)c1ccc(N2CCCN(c3ccnc4sc(C(N)=O)c(N)c34)CC2)cc1` (stereo not shown) [IA7814, 3-amino-4-[4-[4-[3-[3-[2-[2-[2-[2-[2-[2-[[2-(2,6-dioxo-3-piperidyl)-1,3-dioxo-isoindolin-4-yl]amino]ethoxy]ethoxy]ethoxy]ethoxy]ethoxy]ethoxy]propanoylamino]propyl-methyl-carbamoyl]phenyl]-1,4-diazepan-1-yl]thieno[2,3-b]pyridine-2-carboxamide], the “% CDK8 remaining” value (tested at 1 μM) is given as 59%.

`CN(CCCNC(=O)CCOCCOCCOCCOCCNc1cccc2c1C(=O)N(C1CCC(=O)NC1=O)C2=O)C(=O)c1ccc(N2CCCN(c3ccnc4sc(C(N)=O)c(N)c34)CC2)cc1` (stereo not shown) [HP8553]: where the note is “tested at 1 μM”, the “% CDK8 remaining” value came out at 74%.

For `O=C1CCC(N2C(=O)c3cccc(NCCOCCOCCOCCC(=O)N4CCN(C(=O)Cn5cc(-c6ccc(-c7cncc8ccccc78)cc6)cn5)CC4)c3C2=O)C(=O)N1` (stereo not shown) [IA7894, 2-(2,6-dioxopiperidin-3-yl)-4-((2-(2-(2-(3-(4-(2-(4-(4-(isoquinolin-4-yl)phenyl)-1H-pyrazol-1-yl)acetyl)piperazin-1-yl)-3-oxopropoxy)ethoxy)ethoxy)ethyl)amino) isoindoline-1,3-dione], the “% CDK8 remaining” value (tested at 0.3 μM (marked *)) came out at 51%*.

In the case of `O=C(Cn1cc(-c2ccc(-c3cncc4ccccc34)cc2)cn1)NCCOCCOCCOCCOCCNc1cccc2c1C(=O)N(C1CCC(=O)NC1=O)C2=O` (stereo not shown) [IA7891, N-[2-[2-[2-[2-[2-[[2-(2,6-dioxo-3-piperidyl)-1,3-dioxo-isoindolin-4-yl]amino]ethoxy]ethoxy]ethoxy]ethoxy]ethyl]-2-[4-[4-(4-isoquinolyl)phenyl]pyrazol-1-yl]acetamide], the “% CDK8 remaining” value (tested at 1 μM) is recorded as 100%.

Turning to `CN1C(=O)CCC(N2C(=O)c3cccc(NCCOCCOCCOCCOCCC(=O)N4CCN(C(=O)c5ccc6cc(CCNc7ccnc8ccc(C#N)cc78)ccc6c5)CC4)c3C2=O)C1=O` (stereo not shown) [IA7803, 4-[2-[6-[4-[3-[2-[2-[2-[2-[[2-(1-methyl-2,6-dioxo-3-piperidyl)-1,3-dioxo-isoindolin-4-yl]amino]ethoxy]ethoxy]ethoxy]ethoxy]propanoyl]piperazine-1-carbonyl]-2-naphthyl]ethylamino]quinoline-6-carbonitrile], the “% CDK8 remaining” value (tested at 1 μM) is 100%.

As to `Cc1ncsc1-c1ccc(CNC(=O)[C@@H]2C[C@@H](O)CN2C(=O)[C@@H](NC(=O)CCOCCOCCOCCOCCC(=O)N2CCN(C(=O)c3ccc4cc(CCNc5ccnc6ccc(C#N)cc56)ccc4c3)CC2)C(C)(C)C)cc1` [IA7807, (2S,4R)-1-((S)-2-(tert-butyl)-19-(4-(6-(2-((6-cyanoquinolin-4-yl)amino)ethyl)-2-naphthoyl)piperazin-1-yl)-4,19-dioxo-7,10,13,16-tetraoxa-3-azanonadecanoyl)-4-hydroxy-N-(4-(4-methylthiazol-5-yl)benzyl) pyrrolidine-2-carboxamide], for the setting “tested at 1 μM”, the “% CDK8 remaining” value came out at 100%.

Turning to `N#Cc1ccc2nccc(NCCc3ccc4cc(C(=O)N5CCN(C(=O)CCOCCOCCOCCOCCOCCOCCNc6cccc7c6C(=O)N(C6CCC(=O)NC6=O)C7=O)CC5)ccc4c3)c2c1` (stereo not shown) [IA7813, 4-[2-[6-[4-[3-[2-[2-[2-[2-[2-[2-[[2-(2,6-dioxo-3-piperidyl)-1,3-dioxo-isoindolin-4-yl]amino]ethoxy]ethoxy]ethoxy]ethoxy]ethoxy]ethoxy]propanoyl]piperazine-1-carbonyl]-2-naphthyl]ethylamino]quinoline-6-carbonitrile], the “% CDK8 remaining” value (tested at 1 μM) was determined as 28%.

For the compound `N#Cc1ccc2nccc(NCCc3ccc4cc(C(=O)N5CCN(CCCNC(=O)CCOCCOCCOCCOCCNc6cccc7c6C(=O)N(C6CCC(=O)NC6=O)C7=O)CC5)ccc4c3)c2c1` (stereo not shown) [HP8579], the “% CDK8 remaining” value (tested at 1 μM) was 29%.

For the compound `CC(C)(C)C(=O)OCN1C(=O)CCC(N2C(=O)c3cccc(NCCCC(=O)NCCCCCCCCCCC(=O)N4CCN(C(=O)Cn5cc(-c6ccc(-c7cncc8ccccc78)cc6)cn5)CC4)c3C2=O)C1=O` (stereo not shown) [IA7893, (3-(4-((4-((11-(4-(2-(4-(4-(isoquinolin-4-yl)phenyl)-1H-pyrazol-1-yl)acetyl)piperazin-1-yl)-11-oxoundecyl)amino)-4-oxobutyl)amino)-1,3-dioxoisoindolin-2-yl)-2,6-dioxopiperidin-1-yl)methyl pivalate], the “% CDK8 remaining” value (tested at 0.3 μM (marked *)) was 9%*. Besides, the “CDK8 degradation (in words)” value (Western blot) was “highly potent degrader”.

Consider `N#Cc1ccc2nccc(NCCc3ccc4cc(C(=O)N5CCN(C(=O)CCOCCOCCOCCOCCOCCNc6cccc7c6C(=O)N(C6CCC(=O)NC6=O)C7=O)CC5)ccc4c3)c2c1` (stereo not shown) [IA7812, 4-[2-[6-[4-[3-[2-[2-[2-[2-[2-[[2-(2,6-dioxo-3-piperidyl)-1,3-dioxo-isoindolin-4-yl]amino]ethoxy]ethoxy]ethoxy]ethoxy]ethoxy]propanoyl]piperazine-1-carbonyl]-2-naphthyl]ethylamino]quinoline-6-carbonitrile], for which the “% CDK8 remaining” value (tested at 1 μM) stood at 29%.

For the compound `N#Cc1ccc2nccc(NCCc3ccc4cc(C(=O)N5CCN(C(=O)CCCCCCCCNC(=O)CCCCNc6cccc7c6C(=O)N(C6CCC(=O)NC6=O)C7=O)CC5)ccc4c3)c2c1` (stereo not shown) [IA7858, N-[9-[4-[6-[2-[(6-cyano-4-quinolyl)amino]ethyl]naphthalene-2-carbonyl]piperazin-1-yl]-9-oxo-nonyl]-5-[[2-(2,6-dioxo-3-piperidyl)-1,3-dioxo-isoindolin-4-yl]amino]pentanamide], the “% CDK8 remaining” value (tested at 1 μM) is reported as 21%.

The values above are taken from US20250127906A1, “SMALL-MOLECULE DEGRADERS OF CDK8 AND CDK19” (University of South Carolina, priority 2021, published 2025).
